According to ChEMBL document CHEMBL3885881, “DrugMatrix”:

Organism: Rattus norvegicus
Test: DrugMatrix - Regimen: Daily Repeat
Format: toxicity, organism-based, Sprague-Dawley
Design: regimen Daily Repeat, gender Male, age 6-8 weeks
Details: in vivo, po, 430 mg/kg, route oral GAVAGE, dose level High, vehicle .5 % CMC; for ABSOLUTE BASOPHIL / ABSOLUTE EOSINOPHIL / ABSOLUTE LYMPHOCYTE / ABSOLUTE MONOCYTE / ABSOLUTE SEGMENTED NEUTROPHIL / BASOPHIL / EOSINOPHIL / ERYTHROCYTE COUNT / HEMATOCRIT / HEMOGLOBIN / LEUKOCYTE COUNT / LYMPHOCYTE / MEAN CORPUSCULAR HEMOGLOBIN / MEAN CORPUSCULAR HEMOGLOBIN CONCENTRATION / MEAN CORPUSCULAR VOLUME / MONOCYTE / NEUTROPHIL / NUCLEATED RED BLOOD CELLS / PLATELET COUNT: tissue Blood; for ALANINE AMINOTRANSFERASE / ALBUMIN / ALKALINE PHOSPHATASE / ASPARTATE AMINOTRANSFERASE / BLOOD UREA NITROGEN / CARBON DIOXIDE / CHLORIDE / CHOLESTEROL / CREATININE / GLUCOSE / LACTATE DEHYDROGENASE / LIPASE / PHOSPHORUS / POTASSIUM / SODIUM / TOTAL BILIRUBIN / TOTAL PROTEIN / URIC ACID: tissue Plasma

ClC(Cl)Br [BROMODICHLOROMETHANE]
ABSOLUTE BASOPHIL (72 h, time 3 day): 0 CELLS/uL
ABSOLUTE EOSINOPHIL (72 h, time 3 day): 216.67 CELLS/uL
ABSOLUTE LYMPHOCYTE (72 h, time 3 day): 11508.33 CELLS/uL
ABSOLUTE MONOCYTE (72 h, time 3 day): 948.33 CELLS/uL
ABSOLUTE SEGMENTED NEUTROPHIL (72 h, time 3 day): 1326.67 CELLS/uL
BASOPHIL (72 h, time 3 day): 0%
EOSINOPHIL (72 h, time 3 day): 1.33%
ERYTHROCYTE COUNT (72 h, time 3 day): 6.13 x10E6/uL
HEMATOCRIT (72 h, time 3 day): 37.07%
HEMOGLOBIN (72 h, time 3 day): 13.87 G/DL
LEUKOCYTE COUNT (72 h, time 3 day): 14 x10E3/uL
LYMPHOCYTE (72 h, time 3 day): 82.33%
MEAN CORPUSCULAR HEMOGLOBIN (72 h, time 3 day): 22.63 pg
MEAN CORPUSCULAR HEMOGLOBIN CONCENTRATION (72 h, time 3 day): 37.4 G/DL
MEAN CORPUSCULAR VOLUME (72 h, time 3 day): 60.47 fL
MONOCYTE (72 h, time 3 day): 6.67%
NEUTROPHIL (72 h, time 3 day): 9.67%
NUCLEATED RED BLOOD CELLS (72 h, time 3 day): 0 /100WBC
PLATELET COUNT (72 h, time 3 day): 1186 x10E3/uL
ALANINE AMINOTRANSFERASE (72 h, time 3 day): 73.33 u/L
ALBUMIN (72 h, time 3 day): 4.57 G/DL
ALKALINE PHOSPHATASE (72 h, time 3 day): 459.67 u/L
ASPARTATE AMINOTRANSFERASE (72 h, time 3 day): 106 u/L
BLOOD UREA NITROGEN (72 h, time 3 day): 18.67 mg/dL
CARBON DIOXIDE (72 h, time 3 day): 23 mmol/L
CHLORIDE (72 h, time 3 day): 104.67 MEQ/L
CHOLESTEROL (72 h, time 3 day): 72 mg/dL
CREATININE (72 h, time 3 day): 0.22 mg/dL
GLUCOSE (72 h, time 3 day): 124.33 mg/dL
LACTATE DEHYDROGENASE (72 h, time 3 day): 655 u/L
LIPASE (72 h, time 3 day): 9 u/L
PHOSPHORUS (72 h, time 3 day): 12.47 mg/dL
POTASSIUM (72 h, time 3 day): 6.06 MEQ/L
SODIUM (72 h, time 3 day): 141.67 MEQ/L
TOTAL BILIRUBIN (72 h, time 3 day): 0.27 mg/dL
TOTAL PROTEIN (72 h, time 3 day): 5.93 G/DL
URIC ACID (72 h, time 3 day): 1.9 mg/dL
ABSOLUTE BASOPHIL (120 h, time 5 day): 0 CELLS/uL
ABSOLUTE EOSINOPHIL (120 h, time 5 day): 20 CELLS/uL
ABSOLUTE LYMPHOCYTE (120 h, time 5 day): 7894 CELLS/uL
ABSOLUTE MONOCYTE (120 h, time 5 day): 268.67 CELLS/uL
ABSOLUTE SEGMENTED NEUTROPHIL (120 h, time 5 day): 750.67 CELLS/uL
BASOPHIL (120 h, time 5 day): 0%
EOSINOPHIL (120 h, time 5 day): 0.33%
ERYTHROCYTE COUNT (120 h, time 5 day): 6.18 x10E6/uL
HEMATOCRIT (120 h, time 5 day): 35.9%
HEMOGLOBIN (120 h, time 5 day): 13 G/DL
LEUKOCYTE COUNT (120 h, time 5 day): 8.93 x10E3/uL
LYMPHOCYTE (120 h, time 5 day): 88.67%
MEAN CORPUSCULAR HEMOGLOBIN (120 h, time 5 day): 21.07 pg
MEAN CORPUSCULAR HEMOGLOBIN CONCENTRATION (120 h, time 5 day): 36.23 G/DL
MEAN CORPUSCULAR VOLUME (120 h, time 5 day): 58.1 fL
MONOCYTE (120 h, time 5 day): 2.67%
NEUTROPHIL (120 h, time 5 day): 8.33%
NUCLEATED RED BLOOD CELLS (120 h, time 5 day): 0 /100WBC
PLATELET COUNT (120 h, time 5 day): 970.33 x10E3/uL
ALANINE AMINOTRANSFERASE (120 h, time 5 day): 85 u/L
ALBUMIN (120 h, time 5 day): 4.6 G/DL
ALKALINE PHOSPHATASE (120 h, time 5 day): 399.33 u/L
ASPARTATE AMINOTRANSFERASE (120 h, time 5 day): 105 u/L
BLOOD UREA NITROGEN (120 h, time 5 day): 12.67 mg/dL
CARBON DIOXIDE (120 h, time 5 day): 33.67 mmol/L
CHLORIDE (120 h, time 5 day): 103.67 MEQ/L
CHOLESTEROL (120 h, time 5 day): 63.33 mg/dL
CREATININE (120 h, time 5 day): 0.21 mg/dL
GLUCOSE (120 h, time 5 day): 116 mg/dL
LACTATE DEHYDROGENASE (120 h, time 5 day): 107.67 u/L
LIPASE (120 h, time 5 day): 9.33 u/L
PHOSPHORUS (120 h, time 5 day): 10.87 mg/dL
POTASSIUM (120 h, time 5 day): 5.17 MEQ/L
SODIUM (120 h, time 5 day): 146.4 MEQ/L
TOTAL BILIRUBIN (120 h, time 5 day): 0.23 mg/dL
TOTAL PROTEIN (120 h, time 5 day): 6.17 G/DL
URIC ACID (120 h, time 5 day): 0.8 mg/dL
ABSOLUTE BASOPHIL ([…], time 14 day): 0 CELLS/uL
ABSOLUTE EOSINOPHIL ([…], time 14 day): 120.4 CELLS/uL
ABSOLUTE LYMPHOCYTE ([…], time 14 day): 11064.6 CELLS/uL
ABSOLUTE MONOCYTE ([…], time 14 day): 372 CELLS/uL
ABSOLUTE SEGMENTED NEUTROPHIL ([…], time 14 day): 2303 CELLS/uL
BASOPHIL ([…], time 14 day): 0%
EOSINOPHIL ([…], time 14 day): 0.8%
ERYTHROCYTE COUNT ([…], time 14 day): 6.18 x10E6/uL
HEMATOCRIT ([…], time 14 day): 34.92%
HEMOGLOBIN ([…], time 14 day): 12.94 G/DL
LEUKOCYTE COUNT ([…], time 14 day): 13.86 x10E3/uL
LYMPHOCYTE ([…], time 14 day): 80.8%
MEAN CORPUSCULAR HEMOGLOBIN ([…], time 14 day): 20.96 pg
MEAN CORPUSCULAR HEMOGLOBIN CONCENTRATION ([…], time 14 day): 37.08 G/DL
MEAN CORPUSCULAR VOLUME ([…], time 14 day): 56.58 fL
MONOCYTE ([…], time 14 day): 2.6%
NEUTROPHIL ([…], time 14 day): 15.8%
NUCLEATED RED BLOOD CELLS ([…], time 14 day): 0 /100WBC
PLATELET COUNT ([…], time 14 day): 862.2 x10E3/uL
ALANINE AMINOTRANSFERASE ([…], time 14 day): 65.6 u/L
ALBUMIN ([…], time 14 day): 4.56 G/DL
ALKALINE PHOSPHATASE ([…], time 14 day): 422.2 u/L
ASPARTATE AMINOTRANSFERASE ([…], time 14 day): 104.6 u/L
BLOOD UREA NITROGEN ([…], time 14 day): 19.6 mg/dL
CARBON DIOXIDE ([…], time 14 day): 25.8 mmol/L
CHLORIDE ([…], time 14 day): 106.8 MEQ/L
CHOLESTEROL ([…], time 14 day): 71.4 mg/dL
CREATININE ([…], time 14 day): 0.25 mg/dL
GLUCOSE ([…], time 14 day): 140.6 mg/dL
LACTATE DEHYDROGENASE ([…], time 14 day): 190 u/L
LIPASE ([…], time 14 day): 9.2 u/L
PHOSPHORUS ([…], time 14 day): 10.96 mg/dL
POTASSIUM ([…], time 14 day): 5.79 MEQ/L
SODIUM ([…], time 14 day): 145.9 MEQ/L
TOTAL BILIRUBIN ([…], time 14 day): 0.16 mg/dL
TOTAL PROTEIN ([…], time 14 day): 6.14 G/DL
URIC ACID ([…], time 14 day): 1.44 mg/dL
